Earlier results in patent US20260114445A1, “STABLE ANTIMICROBIAL FORMULATION CONCENTRATE” (Kimberly-Clark Worldwide, Inc., priority 2020, published 2026).

Conditions: temperature not given

CCCCCCCC(=O)NO [Caprylhydroxamic Acid]
water solubility: approximately 0.14%
